# Compound: COC1=CC=C(C=C1)COC2=C(C=C(C=C2)CC3=CN=C(N=C3N)N)OC [GW-2580] + Cc1nc(NC(=O)N2CCC[C@H]2C(N)=O)sc1-c1ccnc(C(C)(C)C(F)(F)F)c1 [Alpelisib] (partner 2 µM)
# Test: relative viability (nuclei count vs DMSO), 5 days (fraction); higher = more cells survive
# Settings: first compound 0.8 µM
# Summary of the method: (§1)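 Values are medians from duplicate plates. Each reflects relative viability, defined as the nuclei count of treated wells over that of vehicle wells. Lung cancer cell lines in 1536-well plates were pin-tool dosed one day after seeding with one drug alone or with a fixed anchor-drug dose plus five library-drug doses (not always all listed) in √10 steps, then fixed, stained and imaged at 4× after 5 days.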
row,Cell Line,relative viability
1,HARA,0.927
2,NCI-H322M,0.912
3,NCI-H2009,1.17
4,A-427,1.12
5,NCI-H441,0.853
6,NCI-H661,0.835
7,NCI-H1734,0.761
8,NCI-H460,0.464
9,NCI-H2347,0.968
10,SK-LU-1,1.09
11,201T,1.1
12,NCI-H1915,1.12
13,HCC-827,0.923
14,LXF-289,1.09
15,NCI-H23,0.735
16,NCI-H647,1.45

row,Cell Line,relative viability
1,NCI-H1651,1.17
2,EPLC-272H,1.08
3,NCI-H2228,0.886
4,NCI-H1792,0.809
5,NCI-H1355,0.937
6,NCI-H3122,0.878
7,NCI-H1437,1.11
8,NCI-H1755,1.02
9,NCI-H2023,0.625
10,HCC-15,0.894
11,PC-14,1.14
12,EKVX,1.02
13,LC-2-ad,0.932
14,NCI-H1563,1.05
15,NCI-H1944,0.94
16,NCI-H1975,0.778

# Same assay, conditions: first compound 2.53 µM
row,Cell Line,relative viability
1,HARA,0.578
2,NCI-H322M,0.855
3,LCLC-97TM1,0.189
4,NCI-H2009,1.08
5,A-427,1.02
6,NCI-H441,0.718
7,NCI-H661,0.426
8,NCI-H1734,0.654
9,NCI-H460,0.44
10,NCI-H2347,0.915
11,SK-LU-1,0.85
12,201T,1.01
13,NCI-H1915,1.09
14,HCC-827,0.902
15,LXF-289,0.998
16,NCI-H23,0.512
17,NCI-H647,1.04

row,Cell Line,relative viability
1,CAL-12T,1.19
2,NCI-H1651,0.954
3,EPLC-272H,0.904
4,NCI-H2228,0.627
5,NCI-H1792,0.288
6,NCI-H1355,0.694
7,NCI-H3122,0.671
8,NCI-H1437,0.892
9,NCI-H1755,0.787
10,NCI-H2023,0.513
11,HCC-15,0.87
12,PC-14,0.864
13,EKVX,0.91
14,LC-2-ad,0.875
15,NCI-H1563,0.853
16,NCI-H1944,0.828
17,NCI-H1975,0.647

# Same assay, conditions: first compound 8 µM
row,Cell Line,relative viability
1,HARA,0.8
2,NCI-H322M,0.795
3,LCLC-97TM1,0.226
4,NCI-H2009,1.11
5,A-427,1.09
6,NCI-H441,0.699
7,NCI-H661,0.479
8,NCI-H1734,0.671
9,NCI-H460,0.511
10,NCI-H2347,1.05
11,SK-LU-1,1.18
12,201T,1.01
13,NCI-H1915,1.02
14,HCC-827,0.915
15,LXF-289,0.907
16,NCI-H23,0.749
17,NCI-H647,1.13

row,Cell Line,relative viability
1,CAL-12T,1.06
2,NCI-H1651,0.934
3,EPLC-272H,0.98
4,NCI-H2228,0.775
5,NCI-H1792,0.907
6,NCI-H1355,0.883
7,NCI-H3122,0.758
8,NCI-H1437,0.81
9,NCI-H1755,0.945
10,NCI-H2023,0.604
11,HCC-15,0.82
12,PC-14,0.906
13,EKVX,0.874
14,LC-2-ad,0.87
15,NCI-H1563,0.869
16,NCI-H1944,0.759
17,NCI-H1975,0.596

# Compound: Cc1cnc(Nc2ccc(OCCN3CCCC3)cc2)nc1Nc1cccc(S(=O)(=O)NC(C)(C)C)c1 [Fedratinib] + CCNC(=O)c1noc(-c2cc(C(C)C)c(O)cc2O)c1-c1ccc(CN2CCOCC2)cc1 [Luminespib] (partner 0.01 µM)
# Test: as above
# Settings: first compound 0.1 µM
# Summary of the method: as §1
row,Cell Line,relative viability
1,HARA,0.103
2,NCI-H322M,0.59
3,LCLC-97TM1,0.85
4,NCI-H2009,1.04
5,A-427,0.901
6,NCI-H441,0.331
7,NCI-H661,0.925
8,NCI-H1734,0.179
9,NCI-H460,0.0244
10,NCI-H2347,0.33
11,SK-LU-1,0.181
12,201T,1
13,NCI-H1915,0.823
14,HCC-827,0.436
15,LXF-289,0.741
16,NCI-H23,0.193
17,NCI-H647,0.15

row,Cell Line,relative viability
1,CAL-12T,0.175
2,NCI-H1651,0.764
3,EPLC-272H,0.208
4,NCI-H2228,0.112
5,NCI-H1792,0.231
6,NCI-H1355,0.59
7,NCI-H3122,0.0769
8,NCI-H1437,1.11
9,NCI-H1755,0.367
10,NCI-H2023,0.578
11,HCC-15,0.114
12,EKVX,0.888
13,LC-2-ad,1.01
14,NCI-H1563,0.472
15,NCI-H1944,0.741
16,NCI-H1975,0.235

# Same assay, conditions: first compound 0.3162 µM
row,Cell Line,relative viability
1,HARA,0.766
2,NCI-H322M,0.849
3,LCLC-97TM1,0.758
4,NCI-H2009,1.09
5,A-427,0.884
6,NCI-H441,0.262
7,NCI-H661,0.969
8,NCI-H1734,0.205
9,NCI-H460,0.0389
10,NCI-H2347,0.401
11,SK-LU-1,0.19
12,201T,1.06
13,NCI-H1915,0.754
14,HCC-827,0.698
15,LXF-289,0.665
16,NCI-H23,0.212
17,NCI-H647,0.209
18,CAL-12T,0.617

# — the supplement of paper PMC10307832
